Measured values: patent publication US11911346B2, “Orally administrated therapeutic for treating mild cognitive impairment (MCI) and improving human cognitive function” (BrainCare LLC, priority 2021, dated 2024)

Test system: cognitive function of participants with Subjective Cognitive Decline
Assay: Cognitive Failures Questionnaire (CFQ), 8-week randomized study of one or two BCP capsules daily
Format: in vivo, human
Conditions: for CFQ score: Do you bump into people? / CFQ score: Do you confuse left and right when giving people directions? / CFQ score: Do you daydream when you ought to be listening to something? / CFQ score: Do you fail to hear people speaking to you when you are doing something? / CFQ score: Do you fail to listen to people's names when you are meeting them for the first time? / CFQ score: Do you fail to notice signposts on the road? / CFQ score: Do you fail to see what you want in a supermarket (although it's there)? / CFQ score: Do you find that you drop things? / CFQ score: Do you find that you forget appointments? / CFQ score: Do you find you accidentally misplace things like placing the fruit in the cupboard and the bowl in the refrigerator? / CFQ score: Do you find you can't quite remember something although it's “on the tip of your tongue”? / CFQ score: Do you find you can't think of anything to say? / CFQ score: Do you find you forget people's names? / CFQ score: Do you find you forget what you came to the store to buy? / CFQ score: Do you find you forget whether you've turned off a light or locked the door? / CFQ score: Do you find you forget which way to turn on a road you know well but rarely use? / CFQ score: Do you find you forget why you went from one place of the house to the other? / CFQ score: Do you find yourself suddenly wondering if you used a word correctly? / CFQ score: Do you forget where you put something like a newspaper or a book? / CFQ score: Do you have trouble making up your mind? / CFQ score: Do you lose track of paying bills? / CFQ score: Do you lose your temper and regret it? / CFQ score: Do you read something and find you haven't been thinking about it and must read it again? / CFQ score: Do you say something and realize afterwards that it might be taken as an insult? / CFQ score: Do you start doing one thing at home and get distracted and do something else (unintentionally)? / Distractibility summed sub-score of CFQ / False triggering summed sub-score of CFQ / Forgetfulness summed sub-score of CFQ / Total CFQ summed sub-score: lower is better
[1] = one capsule daily (90 mg BCP), week 4
[2] = one capsule daily (90 mg BCP), week 8
[3] = two capsules daily (180 mg BCP), week 4

SMILES: C=C1CC/C=C(\C)CC[C@@H]2[C@@H]1CC2(C)C [BCP, beta-caryophyllene]
- CFQ % better vs. baseline: Do you bump into people? [1]: 29% better
- CFQ % better vs. baseline: Do you daydream when you ought to be listening to something? [1]: 16% better
- CFQ % better vs. baseline: Do you fail to hear people speaking to you when you are doing something? [1]: 15% better
- CFQ % better vs. baseline: Do you fail to notice signposts on the road? [1]: 17% better
- CFQ % better vs. baseline: Do you fail to see what you want in a supermarket (although it's there)? [1]: 14% better
- CFQ % better vs. baseline: Do you find that you drop things? [1]: 14% better
- CFQ % better vs. baseline: Do you find you accidentally misplace things like placing the fruit in the cupboard and the bowl in the refrigerator? [1]: 17% better
- CFQ % better vs. baseline: Do you find you can't quite remember something although it's “on the tip of your tongue”? [1]: 12% better
- CFQ % better vs. baseline: Do you find you can't think of anything to say? [1]: 15% better
- CFQ % better vs. baseline: Do you find you forget people's names? [1]: 12% better
- CFQ % better vs. baseline: Do you find you forget what you came to the store to buy? [1]: 12% better
- CFQ % better vs. baseline: Do you find you forget whether you've turned off a light or locked the door? [1]: 11% better
- CFQ % better vs. baseline: Do you find you forget which way to turn on a road you know well but rarely use? [1]: 27% better
- CFQ % better vs. baseline: Do you find yourself suddenly wondering if you used a word correctly? [1]: 14% better
- CFQ % better vs. baseline: Do you have trouble making up your mind? [1]: 13% better
- CFQ % better vs. baseline: Do you lose track of paying bills? [1]: 23% better
- CFQ % better vs. baseline: Do you read something and find you haven't been thinking about it and must read it again? [1]: 11% better
- CFQ % better vs. baseline: Do you say something and realize afterwards that it might be taken as an insult? [1]: 28% better
- CFQ % worse vs. baseline: Do you confuse left and right when giving people directions? [1]: 17% worse
- CFQ % worse vs. baseline: Do you find that you forget appointments? [1]: 25% worse
- CFQ change vs. baseline: Do you fail to listen to people's names when you are meeting them for the first time? [1]: No change
- CFQ change vs. baseline: Do you lose your temper and regret it? [1]: No change
- CFQ change vs. baseline: Do you start doing one thing at home and get distracted and do something else (unintentionally)? [1]: no change
- CFQ score: Do you bump into people? [1]: 0.5 ± 0.6
- CFQ score: Do you confuse left and right when giving people directions? [1]: 0.7 ± 1.0
- CFQ score: Do you daydream when you ought to be listening to something? [1]: 1.6 ± 0.8
- CFQ score: Do you fail to hear people speaking to you when you are doing something? [1]: 1.7 ± 0.9
- CFQ score: Do you fail to listen to people's names when you are meeting them for the first time? [1]: 2.2 ± 1.1
- CFQ score: Do you fail to notice signposts on the road? [1]: 1.0 ± 0.7
- CFQ score: Do you fail to see what you want in a supermarket (although it's there)? [1]: 1.2 ± 0.7
- CFQ score: Do you find that you drop things? [1]: 1.2 ± 0.9
- CFQ score: Do you find that you forget appointments? [1]: 1.0 ± 0.7
- CFQ score: Do you find you accidentally misplace things like placing the fruit in the cupboard and the bowl in the refrigerator? [1]: 1.0 ± 0.8
- CFQ score: Do you find you can't quite remember something although it's “on the tip of your tongue”? [1]: 2.3 ± 0.8
- CFQ score: Do you find you can't think of anything to say? [1]: 1.1 ± 0.8
- CFQ score: Do you find you forget people's names? [1]: 2.2 ± 1.0
- CFQ score: Do you find you forget what you came to the store to buy? [1]: 1.5 ± 0.8
- CFQ score: Do you find you forget whether you've turned off a light or locked the door? [1]: 1.6 ± 0.8
- CFQ score: Do you find you forget which way to turn on a road you know well but rarely use? [1]: 0.8 ± 0.7
- CFQ score: Do you find you forget why you went from one place of the house to the other? [1]: 1.7 ± 0.6
- CFQ score: Do you find yourself suddenly wondering if you used a word correctly? [1]: 1.2 ± 0.8
- CFQ score: Do you forget where you put something like a newspaper or a book? [1]: 1.8 ± 0.9
- CFQ score: Do you have trouble making up your mind? [1]: 1.3 ± 0.7
- CFQ score: Do you lose track of paying bills? [1]: 1.0 ± 0.8
- CFQ score: Do you lose your temper and regret it? [1]: 1.1 ± 0.7
- CFQ score: Do you read something and find you haven't been thinking about it and must read it again? [1]: 1.7 ± 0.9
- CFQ score: Do you say something and realize afterwards that it might be taken as an insult? [1]: 1.1 ± 1.0
- CFQ score: Do you start doing one thing at home and get distracted and do something else (unintentionally)? [1]: 2.3 ± 0.8
- Distractibility summed sub-score of CFQ [1]: 11 ± 4
- False triggering summed sub-score of CFQ [1]: 9 ± 4
- Forgetfulness summed sub-score of CFQ [1]: 14 ± 5
- Total CFQ summed sub-score [1]: 34 ± 10
- CFQ % better vs. baseline: Do you daydream when you ought to be listening to something? [2]: 11% better
- CFQ % better vs. baseline: Do you fail to hear people speaking to you when you are doing something? [2]: 20% better
- CFQ % better vs. baseline: Do you fail to listen to people's names when you are meeting them for the first time? [2]: 14% better
- CFQ % better vs. baseline: Do you fail to notice signposts on the road? [2]: 17% better
- CFQ % better vs. baseline: Do you fail to see what you want in a supermarket (although it's there)? [2]: 7% better
- CFQ % better vs. baseline: Do you find that you drop things? [2]: 14% better
- CFQ % better vs. baseline: Do you find you accidentally misplace things like placing the fruit in the cupboard and the bowl in the refrigerator? [2]: 25% better
- CFQ % better vs. baseline: Do you find you forget people's names? [2]: 12% better
- CFQ % better vs. baseline: Do you find you forget what you came to the store to buy? [2]: 18% better
- CFQ % better vs. baseline: Do you find you forget whether you've turned off a light or locked the door? [2]: 17% better
- CFQ % better vs. baseline: Do you find you forget which way to turn on a road you know well but rarely use? [2]: 27% better
- CFQ % better vs. baseline: Do you find yourself suddenly wondering if you used a word correctly? [2]: 14% better
- CFQ % better vs. baseline: Do you have trouble making up your mind? [2]: 7% better
- CFQ % better vs. baseline: Do you lose track of paying bills? [2]: 15% better
- CFQ % better vs. baseline: Do you lose your temper and regret it? [2]: 9% better
- CFQ % better vs. baseline: Do you read something and find you haven't been thinking about it and must read it again? [2]: 16% better
- CFQ % better vs. baseline: Do you say something and realize afterwards that it might be taken as an insult? [2]: 20% better
- CFQ % better vs. baseline: Do you start doing one thing at home and get distracted and do something else (unintentionally)? [2]: 4% better
- CFQ % worse vs. baseline: Do you confuse left and right when giving people directions? [2]: 17% worse
- CFQ % worse vs. baseline: Do you find that you forget appointments? [2]: 13% worse
- CFQ change vs. baseline: Do you bump into people? [2]: No change
- CFQ change vs. baseline: Do you find you can't think of anything to say? [2]: no change
- CFQ score: Do you bump into people? [2]: 0.7 ± 0.6
- CFQ score: Do you confuse left and right when giving people directions? [2]: 0.7 ± 0.9
- CFQ score: Do you daydream when you ought to be listening to something? [2]: 1.7 ± 0.9
- CFQ score: Do you fail to hear people speaking to you when you are doing something? [2]: 1.6 ± 0.9
- CFQ score: Do you fail to listen to people's names when you are meeting them for the first time? [2]: 1.9 ± 1.2
- CFQ score: Do you fail to notice signposts on the road? [2]: 1.0 ± 0.8
- CFQ score: Do you fail to see what you want in a supermarket (although it's there)? [2]: 1.3 ± 0.9
- CFQ score: Do you find that you drop things? [2]: 1.2 ± 0.7
- CFQ score: Do you find that you forget appointments? [2]: 0.9 ± 0.8
- CFQ score: Do you find you accidentally misplace things like placing the fruit in the cupboard and the bowl in the refrigerator? [2]: 0.9 ± 0.7
- CFQ score: Do you find you can't quite remember something although it's “on the tip of your tongue”? [2]: 2.1 ± 0.7
- CFQ score: Do you find you can't think of anything to say? [2]: 1.3 ± 0.8
- CFQ score: Do you find you forget people's names? [2]: 2.2 ± 0.8
- CFQ score: Do you find you forget what you came to the store to buy? [2]: 1.4 ± 0.8
- CFQ score: Do you find you forget whether you've turned off a light or locked the door? [2]: 1.5 ± 0.7
- CFQ score: Do you find you forget which way to turn on a road you know well but rarely use? [2]: 0.8 ± 0.7
- CFQ score: Do you find you forget why you went from one place of the house to the other? [2]: 1.7 ± 0.6
- CFQ score: Do you find yourself suddenly wondering if you used a word correctly? [2]: 1.2 ± 0.7
- CFQ score: Do you forget where you put something like a newspaper or a book? [2]: 1.8 ± 0.7
- CFQ score: Do you have trouble making up your mind? [2]: 1.4 ± 0.9
- CFQ score: Do you lose track of paying bills? [2]: 1.1 ± 0.8
- CFQ score: Do you lose your temper and regret it? [2]: 1.0 ± 0.6
- CFQ score: Do you read something and find you haven't been thinking about it and must read it again? [2]: 1.6 ± 0.9
- CFQ score: Do you say something and realize afterwards that it might be taken as an insult? [2]: 1.2 ± 0.7
- CFQ score: Do you start doing one thing at home and get distracted and do something else (unintentionally)? [2]: 2.2 ± 0.6
- Distractibility summed sub-score of CFQ [2]: 11 ± 3
- False triggering summed sub-score of CFQ [2]: 9 ± 4
- Forgetfulness summed sub-score of CFQ [2]: 13 ± 5
- Total CFQ summed sub-score [2]: 33 ± 11
- CFQ % better vs. baseline: Do you bump into people? [3]: 14% better
- CFQ % better vs. baseline: Do you confuse left and right when giving people directions? [3]: 22% better
- CFQ % better vs. baseline: Do you daydream when you ought to be listening to something? [3]: 28%
- CFQ % better vs. baseline: Do you fail to hear people speaking to you when you are doing something? [3]: 12% better
- CFQ % better vs. baseline: Do you fail to listen to people's names when you are meeting them for the first time? [3]: 22% better
- CFQ % better vs. baseline: Do you fail to notice signposts on the road? [3]: 30% better
- CFQ % better vs. baseline: Do you fail to see what you want in a supermarket (although it's there)? [3]: 15% better
- CFQ % better vs. baseline: Do you find that you drop things? [3]: 27% better
- CFQ % better vs. baseline: Do you find that you forget appointments? [3]: 30% better
- CFQ % better vs. baseline: Do you find you accidentally misplace things like placing the fruit in the cupboard and the bowl in the refrigerator? [3]: 13% better
- CFQ % better vs. baseline: Do you find you can't quite remember something although it's “on the tip of your tongue”? [3]: 20%
- CFQ % better vs. baseline: Do you find you can't think of anything to say? [3]: 27% better
- CFQ % better vs. baseline: Do you find you forget people's names? [3]: 20% better
- CFQ % better vs. baseline: Do you find you forget what you came to the store to buy? [3]: 33% better
- CFQ % better vs. baseline: Do you find you forget whether you've turned off a light or locked the door? [3]: 45%
- CFQ % better vs. baseline: Do you find you forget which way to turn on a road you know well but rarely use? [3]: 33% better
- CFQ % better vs. baseline: Do you find you forget why you went from one place of the house to the other? [3]: 39%
